Assay results: US20230192705A1, “SHP2 INHIBITORS, COMPOSITIONS AND USES THEREOF” (Betta Pharmaceuticals Co., Ltd, priority 2020, published 2023)

molecular target: T1, SHP2 (Homo sapiens, UniProt Q06124); assay: SHP2 allosteric inhibitor enzyme activity assay (DiFMUP fluorescence); assay type: biochemical; conditions: class symbols
T1 sequence (Q06124 1-593): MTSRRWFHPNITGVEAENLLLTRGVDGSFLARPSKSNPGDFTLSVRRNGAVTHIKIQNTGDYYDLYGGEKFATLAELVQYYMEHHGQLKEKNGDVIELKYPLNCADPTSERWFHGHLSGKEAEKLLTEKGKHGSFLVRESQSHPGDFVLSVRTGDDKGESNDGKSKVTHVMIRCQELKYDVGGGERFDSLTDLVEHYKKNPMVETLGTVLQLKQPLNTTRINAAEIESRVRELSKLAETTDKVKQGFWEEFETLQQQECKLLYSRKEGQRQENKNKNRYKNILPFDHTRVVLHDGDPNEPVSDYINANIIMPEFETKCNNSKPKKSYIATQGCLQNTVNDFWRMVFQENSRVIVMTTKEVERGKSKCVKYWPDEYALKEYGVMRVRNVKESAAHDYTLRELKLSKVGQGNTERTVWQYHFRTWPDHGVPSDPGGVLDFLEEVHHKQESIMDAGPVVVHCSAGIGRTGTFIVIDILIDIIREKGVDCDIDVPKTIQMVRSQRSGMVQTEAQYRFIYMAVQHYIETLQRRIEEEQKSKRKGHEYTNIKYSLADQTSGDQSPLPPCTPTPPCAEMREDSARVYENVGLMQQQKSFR
In short: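 SHP2 activated by 0.5 μM IRS1_pY1172(dPEG8)pY1222 peptide, 0.2 ng enzyme per well, 1 h at room temperature with compound (1 μM top, 3-fold series), then DiFMUP substrate 1 h. Buffer: 60 mM HEPES, 75 mM NaCl, 75 mM KCl, 0.05% BRIJ-35, 1 mM EDTA, 5 mM DTT. Fluorescence ex 340/em 450 nm; IC50 by variable-slope fit.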

Row | IC50 | Structure (SMILES)
1 | 20 to 60 nM | N[C@@H]1COCC12CCN(c1nc3[nH]nc(C4(c5nc6ccccc6o5)CC4)c3c(=O)[nH]1)CC2 [Example 282, (S)-6-(4-amino-2-oxa-8-azaspiro[4.5]decan-8-yl)-3-(1-(benzo[d]oxazol-2-yl)cyclopropyl)-1,5-dihydro-4H-pyrazolo[3,4-d]pyrimidin-4-one]
2 | 20 to 60 nM | C[C@@H]1OCC2(CCN(c3nc4[nH]nc(C5(c6ccc(C#N)cc6)CC5)c4c(=O)[nH]3)CC2)[C@@H]1N [Example 315, 4-(1-(6-((3S,4S)-4-amino-3-methyl-2-oxa-8-azaspiro[4.5]decan-8-yl)-4-oxo-4,5-dihydro-1H-pyrazolo[3,4-d]pyrimidin-3-yl)cyclopropyl)benzonitrile]
3 | 20 to 60 nM | C[C@@H]1OCC2(CCN(c3nc4[nH]nc(C5(c6ccccn6)CC5)c4c(=O)[nH]3)CC2)[C@@H]1N [Example 276, 6-((3S,4S)-4-amino-3-methyl-2-oxa-8-azaspiro[4.5]decan-8-yl)-3-(1-(pyridin-2-yl)cyclopropyl)-1,5-dihydro-4H-pyrazolo[3,4-d]pyrimidin-4-one]
4 | 20 to 60 nM | C[C@@H]1OCC2(CCN(c3cnc4c(C5(c6ccsc6)CC5)n[nH]c4n3)CC2)[C@@H]1N [Example 268, (3S,4S)-3-methyl-8-(3-(1-(thiophen-3-yl)cyclopropyl)-1H-pyrazolo[3,4-b]pyrazin-6-yl)-2-oxa-8-azaspiro[4.5]decan-4-amine]
5 | > 60 nM | C[C@@H]1OCC2(CCN(c3cnc(C4(c5ccccc5)CC4)cn3)CC2)[C@@H]1N [Example 258, (3S,4S)-3-methyl-8-(5-(1-phenylcyclopropyl)pyrazin-2-yl)-2-oxa-8-azaspiro[4.5]decan-4-amine]
6 | 20 to 60 nM | C[C@@H]1OCC2(CCN(c3nc4[nH]nc(C5(c6nccs6)CC5)c4c(=O)[nH]3)CC2)[C@@H]1N [Example 277, 6-((3S,4S)-4-amino-3-methyl-2-oxa-8-azaspiro[4.5]decan-8-yl)-3-(1-(thiazol-2-yl)cyclopropyl)-1,5-dihydro-4H-pyrazolo[3,4-d]pyrimidin-4-one]
7 | > 60 nM | C[C@@H]1OCC2(CCN(C3=NC4=NCCN4C(N)=C3C3(c4ccccc4)CC3)CC2)[C@@H]1N [Example 266, (3S,4S)-8-(5-amino-6-(1-phenylcyclopropyl)-2,3-dihydroimidazo[1,2-a]pyrimidin-7-yl)-3-methyl-2-oxa-8-azaspiro[4.5]decan-4-amine]
8 | 20 to 60 nM | C[C@@H]1OCC2(CCN(c3nc4[nH]nc(C5(c6ccc(N)cc6)CC5)c4c(=O)[nH]3)CC2)[C@@H]1N [Example 299, 6-((3S,4S)-4-amino-3-methyl-2-oxa-8-azaspiro[4.5]decan-8-yl)-3-(1-(4-aminophenyl)cyclopropyl)-1,5-dihydro-4H-pyrazolo[3,4-d]pyrimidin-4-one]
9 | 20 to 60 nM | COc1ccc(C2(c3n[nH]c4nc(N5CCC6(CC5)CO[C@@H](C)[C@H]6N)[nH]c(=O)c34)CC2)cc1 [Example 304, 6-((3S,4S)-4-amino-3-methyl-2-oxa-8-azaspiro[4.5]decan-8-yl)-3-(1-(4-methoxyphenyl)cyclopropyl)-1,5-dihydro-4H-pyrazolo[3,4-d]pyrimidin-4-one]

The remaining lines, values behind:

Row | Structure (SMILES) | IC50
10 | N[C@@H]1c2ccccc2CC12CCN(c1nc3[nH]nc(C4(c5nncs5)CC4)c3c(=O)[nH]1)CC2 [Example 239, (S)-3-(1-(1,3,4-thiadiazol-2-yl)cyclopropyl)-6-(1-amino-1,3-dihydrospiro[indene-2,4′-piperidin]-1′-yl)-1,5-dihydro-4H-pyrazolo[3,4-d]pyrimidin-4-one] | ≤ 20 nM
11 | N[C@@H]1c2ccccc2CC12CCN(c1nc3[nH]nc(C4=CCS(=O)(=O)c5ccccc54)c3c(=O)[nH]1)CC2 [Example 180, (S)-6-(1-amino-1,3-dihydrospiro[indene-2,4′-piperidin]-1′-yl)-3-(1,1-dioxido-2H-thiochromen-4-yl)-1,5-dihydro-4H-pyrazolo[3,4-d]pyrimidin-4-one] | ≤ 20 nM
12 | CN1CC2(C=C(c3n[nH]c4nc(N5CCC6(CC5)Cc5ccccc5[C@H]6N)[nH]c(=O)c34)c3ccccc32)C1 [Example 171, (S)-6-(1-amino-1,3-dihydrospiro[indene-2,4′-piperidin]-1′-yl)-3-(1-methylspiro[azetidine-3,1′-inden]-3′-yl)-1,5-dihydro-4H-pyrazolo[3,4-d]pyrimidin-4-one] | ≤ 20 nM
13 | N[C@@H]1c2ccccc2CC12CCN(c1nc3[nH]nc(C4(c5cccc(CO)c5)CC4)c3c(=O)[nH]1)CC2 [Example 226, (S)-6-(1-amino-1,3-dihydrospiro[indene-2,4′-piperidin]-1′-yl)-3-(1-(3-(hydroxymethyl)phenyl)cyclo-propyl)-1,5-dihydro-4H-pyrazolo[3,4-d]pyrimidin-4-one] | ≤ 20 nM
14 | CSc1cccc(C2(c3n[nH]c4nc(N5CCC6(CC5)Cc5ccccc5[C@H]6N)[nH]c(=O)c34)CC2)c1 [Example 225, (S)-6-(1-amino-1,3-dihydrospiro[indene-2,4′-piperidin]-1′-yl)-3-(1-(3-(methylthio)phenyl)cyclopropyl)-1,5-dihydro-4H-pyrazolo[3,4-d]pyrimidin-4-one] | ≤ 20 nM
15 | N[C@@H]1c2ccccc2CC12CCN(c1nc3[nH]nc(C4=CCCc5nc(C6CC6)cc(C(F)(F)F)c54)c3c(=O)[nH]1)CC2 [Example 141, (S)-6-(1-amino-1,3-dihydrospiro[indene-2,4′-piperidin]-1′-yl)-3-(2-cyclopropyl-4-(trifluoromethyl)-7,8-dihydroquinolin-5-yl)-1,5-dihydro-4H-pyrazolo[3,4-d]pyrimidin-4-one] | 20 to 60 nM
16 | Cn1ncc(-c2cccc(C3(c4n[nH]c5nc(N6CCC7(CC6)Cc6ccccc6[C@H]7N)[nH]c(=O)c45)CC3)c2)n1 [Example 37, (S)-6-(1-amino-1,3-dihydrospiro[indene-2,4′-piperidin]-1′-yl)-3-(1-(3-(2-methyl-2H-1,2,3-triazol-4-yl)phenyl)cyclopropyl)-1,5-dihydro-4H-pyrazolo[3,4-d]pyrimidin-4-one] | ≤ 20 nM
17 | Cc1snnc1C1(c2n[nH]c3nc(N4CCC5(CC4)Cc4ccccc4[C@H]5N)[nH]c(=O)c23)CC1 [Example 241, (S)-6-(1-amino-1,3-dihydrospiro[indene-2,4′-piperidin]-1′-yl)-3-(1-(5-methyl-1,2,3-thiadiazol-4-yl)cyclopropyl)-1,5-dihydro-4H-pyrazolo[3,4-d]pyrimidin-4-one] | ≤ 20 nM
18 | Cc1ncc2c(n1)CC(C)(C)C=C2c1n[nH]c2nc(N3CCC4(CC3)Cc3ccccc3[C@H]4N)[nH]c(=O)c12 [Example 147, (S)-6-(l-amino-1,3-dihydrospiro[indene-2,4'-piperidin]-1′-yl)-3-(2,7,7-trimethyl-7,8-dihydroquinazolin-5-yl)-1,5-dihydro-4H-pyrazolo[3,4-d]pyrimidin-4-one] | ≤ 20 nM
19 | N[C@@H]1c2ccccc2CC12CCN(c1nc3[nH]nc(C4(c5cccc6ccccc56)CC4)c3c(=O)[nH]1)CC2 [Example 77, (S)-6-(1-amino-1,3-dihydrospiro[indene-2,4′-piperidin]-1′-yl)-3-(1-(naphthalen-1-yl)cyclopropyl)-1,5-dihydro-4H-pyrazolo[3,4-d]pyrimidin-4-one] | ≤ 20 nM
20 | N[C@@H]1c2ccccc2CC12CCN(c1nc3[nH]nc(C4(c5cccc(-c6ccccc6)c5)CC4)c3c(=O)[nH]1)CC2 [Example 63, (S)-3-(1-([1,1′-biphenyl]-3-yl)cyclopropyl)-6-(1-amino-1,3-dihydrospiro[indene-2,4′-piperidin]-1′-yl)-1,5-dihydro-4H-pyrazolo[3,4-d]pyrimidin-4-one] | ≤ 20 nM
21 | N[C@@H]1c2ccccc2CC12CCN(c1nc3[nH]nc(C4(c5cnccn5)CC4)c3c(=O)[nH]1)CC2 [Example 51, (S)-6-(1-amino-1,3-dihydrospiro[indene-2,4′-piperidin]-1′-yl)-3-(1-(pyrazin-2-yl)cyclopropyl)-1,5-dihydro-4H-pyrazolo[3,4-d]pyrimidin-4-one] | ≤ 20 nM
22 | N[C@@H]1c2ccccc2CC12CCN(c1nc3[nH]nc(C4(c5ccc(F)c(F)c5)CC4)c3c(=O)[nH]1)CC2 [Example 20, (S)-6-(1-amino-1,3-dihydrospiro[indene-2,4′-piperidin]-1′-yl)-3-(1-(3,4-difluorophenyl)cyclopropyl)-1,5-dihydro-4H-pyrazolo[3,4-d]pyrimidin-4-one] | ≤ 20 nM
23 | N[C@@H]1c2ccccc2CC12CCN(c1nc3[nH]nc(C4CCCCc5ccccc54)c3c(=O)[nH]1)CC2 (stereo partly drawn) [Example 110, 6-((S)-1-amino-1,3-dihydrospiro[indene-2,4′-piperidin]-1′-yl)-3-(6,7,8,9-tetrahydro-5H-benzo[7]annulen-5-yl)-1,5-dihydro-4H-pyrazolo[3,4-d]pyrimidin-4-one] | ≤ 20 nM
24 | N[C@@H]1c2ccccc2CC12CCN(c1nc3[nH]nc(C4=CCCc5sccc54)c3c(=O)[nH]1)CC2 [Example 117, (S)-6-(1-amino-1,3-dihydrospiro[indene-2,4′-piperidin]-1′-yl)-3-(6,7-dihydrobenzo[b]thiophen-4-yl)-1,5-dihydro-4H-pyrazolo[3,4-d]pyrimidin-4-one] | ≤ 20 nM
